{"source": "paper PMC9892719", "about": "“High-throughput screening method for discovering CatSper inhibitors using membrane depolarization caused by external calcium chelation and fluorescent cell barcoding” (Frontiers in Cell and Developmental Biology, 2023)", "biological_target": "T1, CatSper (Mus musculus, UniProt A2ARP9+Q80W99+Q8BVN3+Q91ZR5)", "T1 construct": "gene Catsper1; native channel complex in live cauda epididymal sperm; pore of four homologous subunits CatSper 1-4 plus auxiliary subunits; with Cation channel sperm-associated auxiliary subunit beta; Cation channel sperm-associated auxiliary subunit gamma 2; Cation channel sperm-associated auxiliary subunit delta; Cation channel sperm-associated auxiliary subunit epsilon; Cation channel sperm-associated auxiliary subunit zeta; Cation channel sperm-associated targeting subunit tau; Cation channel sperm-associated auxiliary subunit TMEM262; Solute carrier organic anion transporter family member 6C1; Cation channel sperm-associated auxiliary subunit TMEM249", "test": "EGTA-induced Na+ depolarization of live sperm, DiSC3([…]) fluorescence, flow cytometry and spectrofluorometry", "format": "cell-based", "conditions": "non-capacitated sperm, NC TYH medium pH 7.4, 3.5 mM EGTA (free Ca2+ 138 nM)", "data": [{"compound": "O=C(c1cccs1)c1no[n+]([O-])c1C(=O)c1cccs1", "note": "[HC-056456]", "values": [{"measurement": "block of EGTA-induced depolarization at 10 μM", "value": "HC-056456 inhibits CatSper in a concentration-dependent manner"}]}]}
